Assay results as given in PMC9412861, “Understanding the pH Dependence of Supersaturation State—A Case Study of Telmisartan” (Pharmaceutics, 2022).
In brackets after ≈: the same amount, converted by molar mass. Where two headings read alike, the source gives them in different places.

Tests used:
[1] = UV/pH titration in aqueous medium (pKa determination); type: physicochemical; details: for pKa: aqueous 0.15 M KCl solution, UV/pH titration in aqueous medium, I = 0.15 M KCl; for predominant protonated macrospecies: calculated from pKa values at 37 °C
Description: The pKa values of telmisartan were determined by UV-pH titration using the D-PAS™ ultra-violet spectrophotometer attached to a GLpKa instrument (Sirius Analytical Instruments Ltd., Forest Row, UK). First, a stock solution of TEL was prepared in methanol (2 mg/mL). […] Spectra were registered in the 200–700 nm region. The pKa values were calculated by RefinementPro^TM software (Sirius Analytical Instruments Ltd., Forest Row, UK).

[2] = UV/pH titration in MeOH-water mixtures with Yasuda–Shedlovsky extrapolation; type: physicochemical; details: methanol-water mixtures, UV/pH titration in MeOH-water mixture, 25 °C, aqueous value by Yasuda–Shedlovsky extrapolation
Description: The cosolvent dissociation constants (psKa values) were determined in various MeOH-water mixtures between 8–34% (w/w) under the same experimental conditions as in aqueous medium. The aqueous pKa values were calculated from the measured psKa values in methanol-water solutions using the Yasuda–Shedlovsky extrapolation method. The Yasuda–Shedlovsky procedure is based on the linear relation between psKa and the dielectric constant (ε) of the cosolvent mixture:(1) psKa+log[H2O]=a/ε+b where ε is the dielectric constant, and log[H2O] is the molar water concentration of the given methanol-water mixture.

[3] = 1H NMR/pH titration (pKa determination); type: physicochemical; details: 5 v/v % D2O-95 v/v % H2O, NMR-pH titration, 25 °C, I = 0.15 M
Description: All NMR measurements were performed on a Varian 600 MHz spectrometer (Varian Inc., Palo Alto, CA, USA) with a dual 5 mm inverse-detection gradient probehead at 25 °C, constant ionic strength (I = 0.15 M) and using 5 v/v % D2O–95 v/v % H2O as solvent. The spectra were referenced to internal DSS (sodium 3-(trimethylsilyl)-1-propanesulfonate) as chemical shift reference. The pH of the samples (600 μL)were adjusted with concentrated HCl and NaOH and determined by in situ internal indicator molecules optimized for NMR [39, 40]. The concentration of telmisartan was below 1 mM during in the titration solution, due to its poor solubility, but all the peaks were still clearly visible. The water resonance was diminished by a double pulse field gradient spin echo sequence (number of transients = 16, number of points = 16,384, acquisition time = 3.33 s, relaxation delay = 1.5 s).
In order to obtain the acid dissociation constants from the chemical shifts–pH profiles, the software Origin Pro 8 (OriginLab Corp., Northampton, MA, USA) was used to perform non-linear regression with the following function:(2) δobs(pH)=δX^−+∑i=1nδHiX^i−1×10^logβi−i×pH/1+∑i=1n10^logβi−i×pH where δX^- is the chemical shift of the unprotonated ligand (X^−), δHiX^i-1 values stand for the chemical shifts of successively protonated species of X^−, n is the maximum number of protons that can bind to the unprotonated ligand, β is the cumulative macroconstant. The standard deviations of logβ values from the regression analyses were used to calculate the Gaussian propagation of uncertainty for the other equilibrium constants.

[4] = Thermodynamic (equilibrium) solubility, saturation shake-flask, in Prisma HT buffer; type: physicochemical; details: thermodynamic from solid
Description: (§1) The methods for thermodynamic solubility measurements can be found in Baka et al. (measured amount of TEL: 1 mg/mL, 37 °C, 6 h strirring, 18 h sedimentation). During the thermodynamic solubility measurements in Prisma buffers the concentration of the API was determined without filtering the solutions by the Rainbow Dynamic Dissolution Monitor instrument (Pion Inc., Billerica, MA, USA). In the case of solubility measurements in distilled water, the concentration of the API after filtration with PVDF membrane (0.22 µm) was determined by Jasco V-550 UV–vis spectrophotometer (Jasco Inc., Easton, MD, USA).

[5] = Thermodynamic (equilibrium) solubility, saturation shake-flask, in distilled water; type: physicochemical
Description: as §1

[6] = XRD characterization of solid phase isolated from solubility suspension; type: physicochemical; details: solid phase from solubility measurement, Prisma HT buffer
Description: X-ray powder diffraction (XRD) measurements were performed by X’pert Pro MPD X-ray diffractometer (PANalytical B.v., Armelo, The Netherlands).

[7] = Analysis of solubility-pH data with pDISOL-X; type: physicochemical; details: from thermodynamic solubility-pH data in distilled water
From the text: For the analysis of solubility-pH profile, the pDISOL-X^TM program (in-ADME Research, NY, USA) was used. The mathematical approach used in the program for log S-pH simulation-refinement has been described by Völgyi et al.. The program has been applied in several other recent studies.

[8] = between pH 3–8; cited from earlier work
[9] = read-out: pKa1 ± SD (Carboxyl Group)
[10] = read-out: pKa2 ± SD (Middle Benzimidazole Ring)
[11] = read-out: pKa3 ± SD (Terminal Benzimidazole Ring)

CCCc1nc2c(C)cc(-c3nc4ccccc4n3C)cc2n1Cc1ccc(-c2ccccc2C(=O)O)cc1 [Telmisartan, telmisartan]
pKa ([1]; 25 °C, read-out: pKa1 ± SD (Carboxyl Group)): 3.03 ± 0.04 | pKa ([1]; 25 °C, read-out: pKa2 ± SD (Middle Benzimidazole Ring)): 4.22 ± 0.09 | pKa ([1]; 25 °C, read-out: pKa3 ± SD (Terminal Benzimidazole Ring)): 6.08 ± 0.07 | pKa ([1]; 37 °C, read-out: pKa1 ± SD (Carboxyl Group)): 3.04 ± 0.03 | pKa ([1]; 37 °C, read-out: pKa2 ± SD (Middle Benzimidazole Ring)): 4.08 ± 0.02 | pKa ([1]; 37 °C, read-out: pKa3 ± SD (Terminal Benzimidazole Ring)): 5.91 ± 0.05 | predominant protonated macrospecies ([1]; gastric pH (pH 1–2)): dication (XH3^2+) | predominant protonated macrospecies ([1]; intestinal pH (pH 5–6.5)): monoprotonated (XH) and the unprotonated anionic (X^−) | predominant protonated macrospecies ([1]; pH of plasma (pH 7.4)): anionic (X^−) | pKa [2, 9]: 3.03 ± 0.06 | pKa [2, 10]: 4.19 ± 0.07 | pKa [2, 11]: 6.14 ± 0.1 | pKa [3, 9]: 3.21 ± 0.14 | pKa [3, 10]: 4.28 ± 0.07 | pKa [3, 11]: 6.08 ± 0.04 | solubility thermodynamic at 6 h ([4]; aqueous buffer, pH 2.15, 37 °C, read-out: Equilibrium solubility S ± SD): 0.119 ± 0.0118 mg/mL | solubility thermodynamic at 6 h ([4]; aqueous buffer, pH 2.15, 37 °C, read-out: Equilibrium solubility logS ± SD (converted)): 229 µM | solubility thermodynamic at 6 h ([4]; aqueous buffer, pH 3.08, 37 °C, read-out: Equilibrium solubility S ± SD): 0.0131 ± 0.00173 mg/mL | solubility thermodynamic at 6 h ([4]; aqueous buffer, pH 3.08, 37 °C, read-out: Equilibrium solubility logS ± SD (converted)): 25.1 µM | solubility thermodynamic at 6 h ([4]; aqueous buffer, pH 3.82, 37 °C, read-out: Equilibrium solubility S ± SD): 0.00362 ± 0.00059 mg/mL | solubility thermodynamic at 6 h ([4]; aqueous buffer, pH 3.82, 37 °C, read-out: Equilibrium solubility logS ± SD (converted)): 7.08 µM | solubility thermodynamic at 6 h ([4]; aqueous buffer, pH 7.88, 37 °C, read-out: Equilibrium solubility S ± SD): 0.0115 ± 0.00026 mg/mL | solubility thermodynamic at 6 h ([4]; aqueous buffer, pH 7.88, 37 °C, read-out: Equilibrium solubility logS ± SD (converted)): 22.4 µM | solubility thermodynamic at 6 h ([4]; aqueous buffer, pH 9.00, 37 °C, read-out: Equilibrium solubility S ± SD): 0.13 ± 0.00273 mg/mL | solubility thermodynamic at 6 h ([4]; aqueous buffer, pH 9.00, 37 °C, read-out: Equilibrium solubility logS ± SD (converted)): 251 µM | solubility thermodynamic at 6 h ([4]; aqueous buffer, pH 9.79, 37 °C, read-out: Equilibrium solubility S ± SD): 1.47 ± 0.255 mg/mL | solubility thermodynamic at 6 h ([4]; aqueous buffer, pH 9.79, 37 °C, read-out: Equilibrium solubility logS ± SD (converted)): 2880 µM | solubility thermodynamic at 6 h ([4]; aqueous buffer, pH 11.74, 37 °C, read-out: Equilibrium solubility S ± SD): 2.25 ± 0.145 mg/mL | solubility thermodynamic at 6 h ([4]; aqueous buffer, pH 11.74, 37 °C, read-out: Equilibrium solubility logS ± SD (converted)): 4370 µM | solubility thermodynamic at 6 h ([4]; pH 1.6, aqueous buffer, pH 1.60, 37 °C, read-out: Equilibrium solubility S ± SD): 0.15 ± 0.038 mg/mL | solubility thermodynamic at 6 h ([4]; pH 1.6, aqueous buffer, pH 1.60, 37 °C, read-out: Equilibrium solubility logS ± SD (converted)): 288 µM | solubility thermodynamic at 6 h ([4]; pH 2.5, aqueous buffer, pH 2.50, 37 °C, read-out: Equilibrium solubility S ± SD): 0.017 ± 0.00072 mg/mL | solubility thermodynamic at 6 h ([4]; pH 2.5, aqueous buffer, pH 2.50, 37 °C, read-out: Equilibrium solubility logS ± SD (converted)): 47.9 µM | solubility thermodynamic at 6 h ([4]; pH 6.5, aqueous buffer, pH 6.50, 37 °C, read-out: Equilibrium solubility S ± SD): 0.00079 ± 0.00016 mg/mL | solubility thermodynamic at 6 h ([4]; pH 6.5, aqueous buffer, pH 6.50, 37 °C, read-out: Equilibrium solubility logS ± SD (converted)): 1.58 µM | solubility thermodynamic at 6 h ([4]; pH 9.4, aqueous buffer, pH 9.40, 37 °C, read-out: Equilibrium solubility S ± SD): 0.275 ± 0.0094 mg/mL | solubility thermodynamic at 6 h ([4]; pH 9.4, aqueous buffer, pH 9.40, 37 °C, read-out: Equilibrium solubility logS ± SD (converted)): 537 µM | solubility thermodynamic at 6 h ([5]; pH 2.66, 37 °C, read-out: Equilibrium solubility S ± SD): 0.0108 ± 0.00053 mg/mL | solubility thermodynamic at 6 h ([5]; pH 2.66, 37 °C, read-out: Equilibrium solubility logS ± SD (converted)): 20.9 µM | solubility thermodynamic at 6 h ([5]; thermodynamic from solid, pH 2.16, 37 °C, read-out: Equilibrium solubility S ± SD): 0.148 ± 0.00548 mg/mL | solubility thermodynamic at 6 h ([5]; thermodynamic from solid, pH 2.16, 37 °C, read-out: Equilibrium solubility logS ± SD (converted)): 288 µM | solubility thermodynamic at 6 h ([5]; thermodynamic from solid, pH 3.08, 37 °C, read-out: Equilibrium solubility S ± SD): 0.0034 ± 0.00049 mg/mL | solubility thermodynamic at 6 h ([5]; thermodynamic from solid, pH 3.08, 37 °C, read-out: Equilibrium solubility logS ± SD (converted)): 6.61 µM | solubility thermodynamic at 6 h ([5]; thermodynamic from solid, pH 3.98, 37 °C, read-out: Equilibrium solubility S ± SD): 0.00036 ± 0.00012 mg/mL | solubility thermodynamic at 6 h ([5]; thermodynamic from solid, pH 3.98, 37 °C, read-out: Equilibrium solubility logS ± SD (converted)): 0.692 µM | solubility thermodynamic at 6 h ([5]; thermodynamic from solid, pH 7.22, 37 °C, read-out: Equilibrium solubility S ± SD): 0.00365 ± 0.00011 mg/mL | solubility thermodynamic at 6 h ([5]; thermodynamic from solid, pH 7.22, 37 °C, read-out: Equilibrium solubility logS ± SD (converted)): 7.08 µM | solubility thermodynamic at 6 h ([5]; thermodynamic from solid, pH 7.4, 37 °C, read-out: Equilibrium solubility S ± SD): 0.0138 ± 0.00281 mg/mL | solubility thermodynamic at 6 h ([5]; thermodynamic from solid, pH 7.4, 37 °C, read-out: Equilibrium solubility logS ± SD (converted)): 26.9 µM | XRD Characterization ([6]; pH 1.60): Crystalline | XRD Characterization ([6]; pH 2.15): Crystalline | XRD Characterization ([6]; pH 2.50): Crystalline | XRD Characterization ([6]; pH 3.08): Crystalline | XRD Characterization ([6]; pH 3.82): Crystalline | XRD Characterization ([6]; pH 6.50): Crystalline | XRD Characterization ([6]; pH 7.88): Crystalline | XRD Characterization ([6]; pH 9.40): amorphous background | XRD Characterization ([6]; pH 9.79): amorphous background | XRD Characterization ([6]; pH 11.74): Amorphous | dimerization constant logK21 [7]: 6.48 ± 0.19 | dimerization constant logK22 [7]: 6.35 ± 0.47 | solubility ([7]; thermodynamic from solid, read-out: calculated intrinsic solubility logS0 (converted)): 0.302 µM (≈ 0.155 µg/mL) | solubility [8]: low solubility
